Inhibition data for one molecule are collected here from PMC6934184, “Selective DNA-PKcs inhibition extends the therapeutic index of localized radiotherapy and chemotherapy” (The Journal of Clinical Investigation, 2019).

The assay has as its target T1, CAMK2D (CaMKII delta) (Homo sapiens, UniProt Q13557).
T1 construct: purchased Thermo Fisher Scientific (Life Technologies) SelectScreen
The assay is described as follows: SelectScreen Z'LYTE. In kind it is biochemical. The procedure: The in vitro kinase selectivity of NU5455 was determined using the SelectScreen Broad Assay Panel (Thermo Fisher Scientific) involving activity and binding assays (Supplemental Table 1). […] Class IA PI3Ks were measured using the p85α subunit.
Kinase [ATP] % Assay Kinase [ATP] % Assay Kinase [ATP] % Assay Kinase [ATP] % Assay
DNA-PK Km app 98.3 Z LATS2 n/a 4.7 L KIT D820E n/a 1.3 L GSK3B (GSK3 beta) Km app -2.5 Z
PIK3C3 (hVPS34) Km app 85.9 A PRKCZ (PKC zeta) Km app 4.7 Z GRK1 n/a 1.3 L BMPR2 n/a -2.5 L
PIK3C2B (PI3K-C2 beta) 10 28.9 A FGFR1 Km app 4.7 Z BRSK2 n/a 1.2 L CDC42 BPB (MRCKB) Km app -2.5 Z
SNF1LK2 Km app 26.6 Z MINK1 Km app 4.6 Z NUAK1 (ARK5) Km app 1.2 A AMPK (A2/B2/G2) n/a -2.6 L
HCK Km app 18.0 Z CSF1R (FMS) Km app 4.3 Z CDK9/cyclin K n/a 1.0 L PRKG1 Km app -2.7 Z
NEK2 Km app 17.8 Z CSNK1G3 (CK1 gamma 3) Km app 4.2 Z NUAK2 n/a 1.0 L KIT T670E n/a -2.8 L
ALK Km app 17.3 Z STK32C (YANK3) n/a 4.2 L CDK2/cyclin O n/a 0.9 L ERBB4 (HER4) Km app -2.8 Z
FGFR3 K650M n/a 16.5 L STK22D (TSSK1) Km app 4.2 Z CAMKK2 (CaMKK beta) n/a 0.9 L PLK4 n/a -2.8 L
SIK3 n/a 16.1 L TAOK3 (JIK) n/a 4.2 L FGFR3 Km app 0.9 Z GRK7 Km app -3.0 Z
LYN A Km app 15.2 Z RPS6KA4 (MSK2) Km app 4.2 Z ULK2 n/a 0.9 L MAPKAPK2 Km app -3.1 Z
BMPR1B (ALK6) n/a 14.5 L PTK2B (FAK2) Km app 4.2 Z KIT D816V n/a 0.9 L FGFR4 Km app -3.1 Z
INSRR (IRR) Km app 14.1 Z CLK2 Km app 4.1 Z CAMK1 (CaMK1) 10 0.8 A CASK n/a -3.1 L
PLK2 Km app 14.1 Z STK24 (MST3) Km app 4.1 Z PTK6 (Brk) Km app 0.7 Z GRK5 Km app -3.2 Z
PRKACA (PKA) Km app 14.0 Z CAMK1D (CaMKI delta) Km app 4.1 Z CAMK2B (CaMKII beta) Km app 0.7 Z EGFR (ErbB1) T790M Km app -3.3 Z
EIF2AK2 (PKR) n/a 13.3 L INSR Km app 4.1 Z ACVR1 (ALK2) n/a 0.7 L PAK4 Km app -3.3 Z
PRKX Km app 12.5 Z IRAK1 Km app 4.0 A ABL1 H396P n/a 0.6 L DAPK3 (ZIPK) Km app -3.4 Z
FGR Km app 12.1 Z SRC N1 Km app 3.9 Z MERTK (cMER) A708S n/a 0.6 L RET M918T n/a -3.5 L
CLK1 Km app 11.7 Z SRPK2 Km app 3.9 Z MAPKAPK5 (PRAK) Km app 0.6 Z PRKCQ (PKC theta) Km app -3.7 Z
MARK3 Km app 11.4 Z RPS6KA6 (RSK4) Km app 3.8 Z AKT1 (PKB alpha) Km app 0.5 Z CAMKK1 (CAMKKA) n/a -3.8 L
PDGFRB (PDGFR beta) Km app 11.0 Z GRK6 Km app 3.7 Z NTRK3 (TRKC) Km app 0.4 Z FLT3 D835Y Km app -3.9 Z
PRKCN (PKD3) Km app 10.7 Z PKN1 (PRK1) Km app 3.6 Z ZAP70 Km app 0.3 Z ROCK2 Km app -4.1 Z
STK16 (PKL12) n/a 10.5 L MAP3K8 (COT) 100 3.5 Z CSNK1A1 (CK1 alpha 1) Km app 0.3 Z CHUK (IKK alpha) Km app -4.2 A
FES (FPS) Km app 10.4 Z FLT4 (VEGFR3) Km app 3.5 Z MYLK (MLCK) n/a 0.2 L AXL Km app -4.2 Z
ABL1 Km app 10.4 Z GRK4 Km app 3.5 Z MKNK2 (MNK2) n/a 0.2 L PIM2 Km app -4.3 Z
MUSK Km app 10.3 Z FRK (PTK5) Km app 3.4 Z AMPK (A1/B1/G3) n/a 0.2 L PAK1 Km app -4.4 Z
MAPK1 (ERK2) Km app 10.1 Z FYN A n/a 3.3 L MAP3K2 (MEKK2) n/a 0.1 L BMPR1A (ALK3) n/a -4.4 L
BRAF 100 9.9 Z CDK1/cyclin A2 n/a 3.3 L CDK8/cyclin C n/a 0.1 L STK4 (MST1) Km app -4.4 Z
IGF1R Km app 9.7 Z KIT V559D T670I n/a 3.1 L MARK2 Km app 0.1 Z PRKCH (PKC eta) Km app -4.6 Z
MAPK14 (p38 alpha) Km app 9.7 Z SPHK2 10 3.1 A ICK n/a 0.0 L SGKL (SGK3) Km app -4.6 Z
LCK Km app 9.6 Z FGFR3 G697C n/a 3.1 L FGFR2 Km app 0.0 Z PI4KB (PI4K beta) Km app -4.7 A
MAPK11 (p38 beta) Km app 9.5 Z RIPK2 n/a 3.1 L AKT2 (PKB beta) Km app 0.0 Z PRKCE (PKC epsilon) Km app -4.9 Z
SRC Km app 9.5 Z PAK6 Km app 3.0 Z EPHB2 Km app -0.1 Z PHKG1 Km app -5.0 Z
CHEK1 (CHK1) Km app 9.3 Z LYN B Km app 3.0 Z TGFBR2 n/a -0.1 L PDGFRA D842V Km app -5.0 Z
CAMK2D (CaMKII delta) Km app 9.3 Z DAPK2 n/a 2.9 L TEK (Tie2) Km app -0.1 Z PRKG2 (PKG2) Km app -5.1 Z
PLK1 Km app 9.2 Z EPHA4 Km app 2.9 Z AURKA (Aurora A) Km app -0.1 Z TYRO3 (RSE) Km app -5.1 Z
RET Y791F Km app 9.2 Z PIK3CG (p110 gamma) Km app 2.9 A KIT D816H n/a -0.2 L TAOK2 (TAO1) Km app -5.1 Z
FLT3 Km app 9.1 Z HIPK1 (Myak) Km app 2.8 Z KIT N822K n/a -0.2 L EPHB4 Km app -5.3 Z
MAPK10 (JNK3) 100 9.0 Z ADRBK2 (GRK3) Km app 2.8 Z PRKACG (PRKAC gamma) n/a -0.2 L AURKC (Aurora C) Km app -5.4 Z
CSNK2A2 (CK2 alpha 2) Km app 8.7 Z STK17B (DRAK2) n/a 2.7 L TEK (TIE2) Y1108F n/a -0.3 L JAK1 Km app -5.7 Z […]

T1 sequence (Q13557 whole entry): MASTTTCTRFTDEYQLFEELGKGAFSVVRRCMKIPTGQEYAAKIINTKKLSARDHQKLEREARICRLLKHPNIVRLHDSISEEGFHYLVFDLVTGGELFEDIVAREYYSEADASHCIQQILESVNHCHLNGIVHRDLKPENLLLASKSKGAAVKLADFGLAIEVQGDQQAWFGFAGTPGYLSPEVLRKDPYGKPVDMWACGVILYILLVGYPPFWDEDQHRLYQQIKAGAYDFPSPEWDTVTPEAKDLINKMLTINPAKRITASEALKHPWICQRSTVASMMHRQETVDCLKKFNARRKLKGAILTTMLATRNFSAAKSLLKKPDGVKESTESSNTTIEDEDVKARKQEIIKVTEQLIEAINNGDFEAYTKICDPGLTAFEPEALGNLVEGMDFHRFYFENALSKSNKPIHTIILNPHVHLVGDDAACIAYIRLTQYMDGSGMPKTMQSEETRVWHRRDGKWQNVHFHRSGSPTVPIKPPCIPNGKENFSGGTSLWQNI

In general, inhibition refers to the share of the control response that was lost under treatment. For `CN(C(=O)CN1CCOCC1)c1ccc2sc3c(-c4cccc5c(=O)cc(N6CC7CCC(C6)O7)oc45)cccc3c2c1` [NU5455], the inhibition at 1 µM was 9.3%.
